Reference: US20100022018A1 (priority 2006, published 2010)
Where two headings read alike, the source gives them in different places.

Columns and labels:
Format in all cases: biochemical
papain [1] = target: T1, papain (Carica papaya, UniProt P00784); test: Background activity of papain inactivated by disulfide-forming reagents; conditions: compared with papain inactivated with methyl methanethiolsulfonate
T1 construct: purchased Sigma Chemical Company (St. Louis, Mo.)
T1 sequence (P00784 134-345): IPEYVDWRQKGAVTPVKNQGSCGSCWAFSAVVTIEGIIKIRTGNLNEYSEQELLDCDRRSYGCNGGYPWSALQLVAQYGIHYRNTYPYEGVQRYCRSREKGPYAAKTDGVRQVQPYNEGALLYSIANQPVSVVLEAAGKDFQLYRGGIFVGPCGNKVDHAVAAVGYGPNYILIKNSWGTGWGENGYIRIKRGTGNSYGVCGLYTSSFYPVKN

papain [2] = target: T1, papain; test: Inactivation of activated papain by metal salts; conditions: metal salt added to equal 1.1× the molar amount of papain
Description: Papain was activated as described above, and the DTT was removed by gel filtration using G-25. Papain was then inactivated by adding a slight molar excess of a mono, di, tri, or tetra valent metal. […] The inhibition by the metals was essentially instantaneous.
This papain was used to assay H2S as follows.

[3] = target: T2, papain inactivated by methyl methanethiolsulfonate (Carica papaya, UniProt P00784)
T2 construct: purchased Sigma Chemical Company (St. Louis, Mo.)
T2 sequence (P00784 134-345): T1 sequence (P00784 134-345)

[4] = target: T3, papain inactivated by 4,4′-dithiobis-pyridine (Carica papaya, UniProt P00784)
T3 construct: purchased Sigma Chemical Company (St. Louis, Mo.)
T3 sequence (P00784 134-345): T1 sequence (P00784 134-345)

[5] = target: T4, papain inactivated by 2,2′-dithiobis-pyridine (Carica papaya, UniProt P00784)
T4 construct: purchased Sigma Chemical Company (St. Louis, Mo.)
T4 sequence (P00784 134-345): T1 sequence (P00784 134-345)

[6] = 50 pmoles of DTT added, turnover of 600/min
[7] = compared with papain inhibited by methyl methanethiolsulfonate

c1cc(SSc2ccncc2)ccn1 [4,4′-dithiobis-pyridine]
background level of activity exhibited by the inactivated papain (papain [1]): higher than papain inactivated with methyl methanethiolsulfonate

c1ccc(SSc2ccccn2)nc1 [2,2′-dithiobis-pyridine]
background level of activity exhibited by the inactivated papain (papain [1]): higher than papain inactivated with methyl methanethiolsulfonate

[Cl][Hg][Cl] [HgCl2]
inhibition of the activity of the activated papain (papain [2]): > 99.9%

sodium sulfide
molecules of activator for every one molecule of papain activated [3]: ~5 | efficiency of reactivation of inactivated papain [4]: somewhat more efficient | efficiency of reactivation of inactivated papain [5]: somewhat more efficient

O[C@H](CS)[C@H](O)CS (racemic) [DTT, dithiothreitol]
rate of appearance of p-nitroanaline [3]: 0.00026 M/min | amount of active papain in 200 μl [3, 6]: 72 pmol | concentration of active papain needed to generate product at this rate [3, 6]: 360 nM | Δ A410/min ([3]; 10 picomoles of DTT added, 1 minute incubation at 25° C., Tris pH 8.0): 0.52 min⁻¹ | Δ A410/min ([3]; 20 picomoles of DTT added, 1 minute incubation at 25° C., Tris pH 8.0): 0.96 min⁻¹ | Δ A410/min ([3]; 50 picomoles of DTT added, 1 minute incubation at 25° C., Tris pH 8.0): 1.9 min⁻¹

O=[N+]([O-])[O-].[Ag+] [AgNO3]
inhibition of the activity of the activated papain (papain [2]): > 99.5%

N[C@@H](CS)C(=O)O [Cysteine, cysteine]
Δ A410/min ([3]; 20 picomoles added, 1 min incubation): 0.45 min⁻¹ | Δ A410/min ([3]; 50 picomoles added, 1 min incubation): 1.1 min⁻¹ | molecules of papain activated for each molecule of activator ([3]; disulfide linkage inactivated papain): < 1 | efficiency of reactivation of inactivated papain [4, 7]: somewhat more efficient | efficiency of reactivation of inactivated papain [5, 7]: somewhat more efficient
